Assay results taken from patent publication US20180021323A1, “FLIP - A SELECTIVE MOLECULAR TARGET OF SENESCENT CELLS” (BIOVENTURES, LLC, priority 2015, published 2018).

How the values were obtained:
normal (NC) WI38 cells = assay: Cell viability of normal (NC) WI38 cells, 72 h treatment; assay type: cell-based; conditions: for LD50 (NC): normal (NC) WI38 cells, viable cells determined 72 h after treatment
Experimental: The expression of FLIP in normal (NC) and IR-induced senescent (SC) WI38 cells was determined by Western blot 24 h after they were treated with vehicle (VEH) or Drox (10 μM). […] IR-induced senescent (SC) WI38 cells were treated with vehicle (VEH) or Drox (10 μM) for 6 h and the expression of FLIP mRNA in these cells was determined by qPCR. […] Viable cells were determined 72 h after normal (NC) and IR-induced senescent (SC) WI38 cells were treated with vehicle (VEH) or increasing concentrations of Drox. The data are presented as a percentage of control cells treated with VEH. […] Normal (NC) and IR-induced senescent (SC) WI38 cells were treated with vehicle (VEH), Drox (10 μM), PL (10 μM), and EF-24 (10 μM) for 24 h and the expression of FLIP in these cells was determined by Western blots. […] Viable cells were determined 72 h after normal (NC) and IR-induced senescent (SC) WI38 cells were treated with vehicle (VEH) or increasing concentrations of Drox, PL, and EF-24. LD50 values for these molecules against NC and SC were calculated and presented.

[1] = tested on: IR-induced senescent (SC) WI38 cells; assay: Cell viability of IR-induced senescent (SC) WI38 cells, 72 h treatment; assay type: cell-based, human; conditions: for LD50 (SC): IR-induced senescent (SC) WI38 cells, viable cells determined 72 h after treatment; for killing of IR-induced senescent (SC) WI38 cells (viable cells, % of vehicle control): increasing concentrations, 72 h
Experimental: (§1) The expression of FLIP in normal (NC) and IR-induced senescent (SC) WI38 cells was determined by Western blot 24 h after they were treated with vehicle (VEH) or Drox (10 μM). Treatment with droxinostat (Drox) down-regulates the expression of FLIP mRNA in IR-induced senescent (SC) WI38 cells (FIG. 3B). IR-induced senescent (SC) WI38 cells were treated with vehicle (VEH) or Drox (10 μM) for 6 h and the expression of FLIP mRNA in these cells was determined by qPCR. […] Viable cells were determined 72 h after normal (NC) and IR-induced senescent (SC) WI38 cells were treated with vehicle (VEH) or increasing concentrations of Drox. The data are presented as a percentage of control cells treated with VEH. Treatment with droxinostat (Drox), piperlongumine (PL) and EF-24 down-regulates the expression of FLIP in IR-induced senescent (SC) WI38 cells (FIG. 3E). Normal (NC) and IR-induced senescent (SC) WI38 cells were treated with vehicle (VEH), Drox (10 μM), PL (10 μM), and EF-24 (10 μM) for 24 h and the expression of FLIP in these cells was determined by Western blots. […] Viable cells were determined 72 h after normal (NC) and IR-induced senescent (SC) WI38 cells were treated with vehicle (VEH) or increasing concentrations of Drox, PL, and EF-24. LD50 values for these molecules against NC and SC were calculated and presented.

FLIP = FLIP protein expression by Western blot in IR-induced senescent WI38 cells; assay type: cell-based, human; conditions: 10 μM, 24 h
Source text: Treatment with doxycycoline (DOX) dose-dependently induces FLIP-shRNA expression in WI38 cell line after the cells were stably transfected with a plasmid containing FLIP-shRNA and red fluorescent protein (RFP) genes (FIG. 2A). Induction of FLIP-shRNA by doxycycoline down-regulates FLIP expression in IR-induced senescent WI38 cells stably transfected with FLIP-shRNA but not in vector transfected cells (FIG. 2B).
as §1

FLIP mRNA = FLIP mRNA expression by qPCR in IR-induced senescent WI38 cells; assay type: cell-based, human; conditions: 10 μM, 6 h
Experimental: as §1

Row | Compound | effect on normal (NC) WI38 cells (viable cells, % of vehicle control) (normal (NC) WI38 cells; increasing concentrations, 72 h) | LD50 (NC) (normal (NC) WI38 cells) [µM] | LD50 (SC) [1] [µM] | killing of IR-induced senescent (SC) WI38 cells (viable cells, % of vehicle control) [1] | expression of FLIP (Western blot, FIG. 3A) (FLIP) | expression of FLIP (Western blot, FIG. 3E) (FLIP) | expression of FLIP mRNA (qPCR, FIG. 3B) (FLIP mRNA)
1 | Cc1cc(Cl)ccc1OCCCC(=O)NO [Droxinostat, 4-(4-chloro-2-methylphenoxy)-N-hydroxybutanamide] | minimal effect | 39.58 | 8.26 | selectively kill | down-regulated | down-regulates | down-regulates
2 | O=C1/C(=C/c2ccccc2F)CNC/C1=C\c1ccccc1F [EF-24] | – | 6.08 | 1.05 | selectively kill | – | down-regulates | –
3 | COc1cc(/C=C/C(=O)N2CCC=CC2=O)cc(OC)c1OC [Piperlongumine, piperlongumine] | – | 24.25 | 7.05 | selectively kill | – | down-regulates | –
